Test results taken from patent US20240059688A1, “CONOLIDINE ANALOGUES AS SELECTIVE ACKR3 MODULATORS FOR THE TREATMENT OF CANCER” (Luxembourg Institute of Health (LIH), priority 2020, published 2024).

Key:
ACKR3 = ACKR3 (Homo sapiens, UniProt P25106); experiment: ACKR3 β-arrestin recruitment assay (PathHunter, β-galactosidase complementation); type: cell-based; settings: for EC50: stable human ACKR3-β-arrestin-2-CHO cells, mean ± SEM, at least two independent experiments in duplicate; for Emax: read-out: ACKR3 β-arrestin % CXCL12 Emax ± SEM
Description: (§1) Compounds were evaluated for agonist activity using a β-arrestin recruitment assay based on β-galactosidase complementation (PathHunter, DiscoverX). Stable human ACKR3-β-arrestin-2-CHO cells (DiscoverX) were plated into 96-well white-walled assay plates at 15,000 cells/well in Cell Plating Reagent 2 (DiscoveRx) and incubated at 37° C., 5% CO2 overnight. The next day, test compounds were prepared at 10× concentration in DPBS/1% DMSO and 10 μL was added to the cells. CXCL-12 was included as a positive agonist control. Following a 1.5 hr incubation at 37° C., 55 μL of detection reagent (prepared according to the manufacturer's specifications) was added to each well. The plate was incubated at room temperature for 1 hr, after which luminescence was measured at 1 sec/well using an EnSpire multimode plate reader (PerkinElmer). Relative luminescence units (RLU) were plotted against the log of compound concentration and data were fit to a three-parameter logistic curve to generate EC50 values (GraphPad Prism). EC50 and % Emax values are reported as means±SEM and are the result of at least two independent experiments performed in duplicate. The CXCR4 assay was run similarly except that human CXCR4-C2Cl2 cells (DiscoverX) were plated at 20,000 cells/well in Cell Plating Reagent 9. The next day, the media was removed and cells were incubated with Cell Plating Reagent 4 for 3 hrs, after which the assay was conducted as described above.

human CXCR4 = biological target: T1, human CXCR4 (Homo sapiens, UniProt P61073); experiment: CXCR4 β-arrestin recruitment assay (PathHunter); type: cell-based; settings: human CXCR4-C2Cl2 cells, relative to CXCL-12
T1 construct: host or cells: C2C12
Description: as §1

ACKR3, sequence (P25106 whole entry): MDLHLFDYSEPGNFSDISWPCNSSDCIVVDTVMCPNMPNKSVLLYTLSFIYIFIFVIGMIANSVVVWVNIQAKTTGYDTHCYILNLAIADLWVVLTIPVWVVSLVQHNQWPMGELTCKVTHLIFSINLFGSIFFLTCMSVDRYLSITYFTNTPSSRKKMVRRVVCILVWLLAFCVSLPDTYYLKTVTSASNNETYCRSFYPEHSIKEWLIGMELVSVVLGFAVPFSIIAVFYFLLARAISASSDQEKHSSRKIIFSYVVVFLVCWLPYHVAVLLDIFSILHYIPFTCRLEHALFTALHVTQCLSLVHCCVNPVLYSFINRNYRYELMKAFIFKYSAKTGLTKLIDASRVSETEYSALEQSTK
T1 sequence (P61073 whole entry): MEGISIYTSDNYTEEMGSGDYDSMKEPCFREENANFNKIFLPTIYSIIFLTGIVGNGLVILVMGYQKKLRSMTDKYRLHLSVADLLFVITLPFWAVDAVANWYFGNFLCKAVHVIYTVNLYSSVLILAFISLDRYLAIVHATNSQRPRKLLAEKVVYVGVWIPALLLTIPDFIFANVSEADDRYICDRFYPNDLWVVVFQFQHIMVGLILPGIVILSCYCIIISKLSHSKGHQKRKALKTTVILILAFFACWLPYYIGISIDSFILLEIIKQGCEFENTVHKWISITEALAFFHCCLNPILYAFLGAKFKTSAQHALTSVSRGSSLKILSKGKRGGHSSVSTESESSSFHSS

EC50 (ACKR3) [µM]	CXCR4 β-arrestin % CXCL-12Emax (n = 2) (human CXCR4) [%]	Emax (ACKR3) [%]	SMILES
3.78 ± 0.98	4	145 ± 16	C/C=C1/CN(CCCCOc2ccccc2)CC[C@H]1C(=O)c1cc2ccccc2[nH]1 [WW-72, (3E,4R)-(3-ethylidene-1-(4-phenoxybutyl)piperidin-4-yl)(1H-indol-2-yl)methanone]
> 10	9		C/C=C1/CN(CCCCC)CC[C@H]1C(=O)c1cc2cc(-c3ccc(F)cc3)ccc2[nH]1 [WW-73, [(3E,4R)-3-ethylidene-1-pentylpiperidin-4-yl][5-(4-fluorophenyl)-1H-indol-2-yl]methanone]
0.177 ± 0.01	3	172 ± 6	C/C=C1/CN(CCCCC)CC[C@H]1C(O)c1cc2ccccc2n1S(=O)(=O)c1ccccc1 (stereo partly drawn) [WW-74]

Further lines, the compound ahead of its results:

SMILES	EC50 (ACKR3) [µM]	CXCR4 β-arrestin % CXCL-12Emax (n = 2) (human CXCR4) [%]	Emax (ACKR3) [%]
C/C=C1/CN(Cc2ccc(OC)cc2)CC[C@H]1C(O)c1cc2cc(C#N)ccc2n1S(=O)(=O)c1ccccc1 (stereo partly drawn) [WW-70, 2-{[(3E, 4R)-(3-ethylidene-1-(4-methoxybenzyl)piperidin-4-yl)](hydroxy)methyl}-1-(phenylsulfonyl)-1H-indole-5-carbonitrile]	> 10	−2	
C/C=C1/CN(CCCCCC(=O)OC)CC[C@H]1C(=O)c1cc2ccccc2[nH]1 [WW-71, Methyl 6-[(3E,4R)-3-ethylidene-4-(1H-indol-2-ylcarbonyl)piperidin-1-yl]hexanoate]	> 10	4	
